The target in test [1] is Factor XIa (Homo sapiens (Human), UniProt P03951). Put plainly: Factor XIa inhibition assay (FLINT) utilizing a fluorophore-quencher pair peptide substrate. The settings on record: 30 min preincubation, read-out: FXIa Kin Inh IC50; for pIC50: kinetic reads over 30 min. It counts as biochemical. The gist of the method: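 FXIa ([…]) preincubated 30 min with compound (11-point 3-fold dilution, top 100 nM, 2% DMSO), then 15 μM quenched FXI Arg146-based peptide added; Tris pH 7.5, CaCl2, BSA, CHAPS. Fluorescence 485/520 nm read kinetically every 5 min over 30 min at RT; IC50 by 4-parameter fit.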
Sequence of Factor XIa (P03951 388-625): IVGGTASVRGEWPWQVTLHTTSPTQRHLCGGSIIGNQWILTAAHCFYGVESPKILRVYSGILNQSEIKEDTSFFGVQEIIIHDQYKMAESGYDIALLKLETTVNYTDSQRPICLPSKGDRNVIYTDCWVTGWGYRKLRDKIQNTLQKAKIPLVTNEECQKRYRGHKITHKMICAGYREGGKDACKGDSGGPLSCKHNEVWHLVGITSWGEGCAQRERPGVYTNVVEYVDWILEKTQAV
Sequence of Factor XIa (P03951 19-387 partner): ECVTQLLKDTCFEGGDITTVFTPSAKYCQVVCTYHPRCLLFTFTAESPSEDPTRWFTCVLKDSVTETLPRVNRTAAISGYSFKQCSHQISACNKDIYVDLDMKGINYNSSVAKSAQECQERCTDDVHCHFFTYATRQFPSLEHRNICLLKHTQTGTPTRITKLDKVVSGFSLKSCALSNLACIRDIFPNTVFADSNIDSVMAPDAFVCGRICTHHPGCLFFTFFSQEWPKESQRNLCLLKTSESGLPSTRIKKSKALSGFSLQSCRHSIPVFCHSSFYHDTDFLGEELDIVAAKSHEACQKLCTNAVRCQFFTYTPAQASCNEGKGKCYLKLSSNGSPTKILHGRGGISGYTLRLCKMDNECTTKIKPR

The target of test [2] is human plasma kallikrein (Homo sapiens (Human), UniProt P03952). As to the kind of experiment: Kallikrein inhibition assay (FLINT) utilizing a quenched AMC peptide substrate. It counts as biochemical. The settings on record: 30 min preincubation, kinetic reads over 30 min, Z-Gly-Pro-Arg-AMC substrate 50 μM; read-out: Kallikrein Kin Inh IC50. A digest of the protocol:
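Fluorogenic Z-Gly-Pro-Arg-AMC cleavage (50 μM substrate, 2 nM kallikrein, Tris pH 7.5, CaCl2, BSA, CHAPS, 2% DMSO) read kinetically at 340/440 nm for 30 min after 30-min compound pre-incubation. Compounds in 11-point 3-fold series from 1 μM; percent inhibition fitted to four-parameter equation for IC50.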

[3] abbreviates: 5Fam-[…]-K5Tamra substrate 15 μM.

SMILES strings stand for the structures. pIC50: −log10 of the molar value. Where two headings read alike, the source gives them in different places. Bounds are passed on as bounds.

Sequence of human plasma kallikrein (P03952 391-638): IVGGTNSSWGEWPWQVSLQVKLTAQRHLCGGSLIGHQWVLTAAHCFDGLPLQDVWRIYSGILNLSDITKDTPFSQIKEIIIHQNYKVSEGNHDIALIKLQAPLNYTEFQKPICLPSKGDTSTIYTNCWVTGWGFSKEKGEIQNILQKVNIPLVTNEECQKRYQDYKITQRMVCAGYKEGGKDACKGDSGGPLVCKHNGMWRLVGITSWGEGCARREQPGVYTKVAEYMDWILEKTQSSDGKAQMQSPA
Sequence of human plasma kallikrein (P03952 20-390 partner): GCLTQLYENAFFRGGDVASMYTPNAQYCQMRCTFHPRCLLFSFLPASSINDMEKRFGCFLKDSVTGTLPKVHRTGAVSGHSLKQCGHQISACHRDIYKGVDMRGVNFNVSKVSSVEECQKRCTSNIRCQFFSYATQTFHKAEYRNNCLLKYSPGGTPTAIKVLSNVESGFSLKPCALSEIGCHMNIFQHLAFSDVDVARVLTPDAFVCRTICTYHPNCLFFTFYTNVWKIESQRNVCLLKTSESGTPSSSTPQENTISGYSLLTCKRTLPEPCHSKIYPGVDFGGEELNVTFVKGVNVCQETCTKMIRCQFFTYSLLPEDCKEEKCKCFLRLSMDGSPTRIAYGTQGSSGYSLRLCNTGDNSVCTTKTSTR

As for `CCC(=O)Nc1ccccc1-c1c[nH]c([C@@H]2CC[C@H]3CC(c4c(-n5cnnn5)ccc(Cl)c4F)=CC(=O)N32)n1` (relative stereo) [Example 296, N-(2-(24(3S,8aS*)-7-(3-Chloro-2-fluoro-6-(1H-tetrazol-1-yl)phenyl)-5-oxo-1,2,3,5,8,8a-hexahydroindolizin-3-yl)-1H-imidazol-4-yl)phenyl)propionamide], the pIC50 was 9.22 in test [1] (5Fam-KLTRAETV-K5Tamra substrate 15 μM) and 8.27 in test [2].

Turning to `Cn1c(=O)[nH]c2ccc(-c3cnc([C@@H]4CC[C@H]5CC(c6c(-n7cnnn7)ccc(Cl)c6F)=CC(=O)N54)[nH]3)cc21` (relative stereo) [Example 299, 6-(2-((3S,8aS*)-7-(3-Chloro-2-fluoro-6-(1H-tetrazol-1-yl)phenyl)-5-oxo-1,2,3,5,8,8a-hexahydroindolizin-3-yl)-1H-imidazol-5-yl)-1-methyl-1H-benzo[d]imidazol-2(3H)-one], the pIC50 is 8.28 in test [1] (setting [3]) and 8.25 in test [2].

For the molecule `Cn1c(=O)[nH]c2ccc(-c3cnc([C@@H]4CC[C@@H]5CC(c6c(-n7cnnn7)ccc(Cl)c6F)=CC(=O)N54)[nH]3)cc21` (relative stereo) [Example 300, 6-(2-((3S,8aR*)-7-(3-Chloro-2-fluoro-6-(1H-tetrazol-1-yl)phenyl)-5-oxo-1,2,3,5,8,8a-hexahydroindolizin-3-yl)-1H-imidazol-5-yl)-1-methyl-1H-benzo[d]imidazol-2(3H)-one], the pIC50 in test [1] (setting [3]) is 8.85; in test [2] it was 8.70.

In the case of `COC(=O)Nc1ccccc1-c1cnc([C@@H]2CC[C@@H]3CC(c4c(-n5cnnn5)ccc(Cl)c4F)=CC(=O)N32)[nH]1` (relative stereo) [Example 301, Methyl 2-(2-((3S,8aR*)-7-(3-chloro-2-fluoro-6-(1H-tetrazol-1-yl)phenyl)-5-oxo-1,2,3,5,8,8a-hexahydroindolizin-3-yl)-1H-imidazol-4-yl)phenylcarbamate], the negative logarithm of the IC50 (pIC50) is 8.51 in test [1] (setting [3]) and 7.75 in test [2].

Take `COC(=O)Nc1ccccc1-c1cnc([C@@H]2CC[C@H]3CC(c4c(-n5cnnn5)ccc(Cl)c4F)=CC(=O)N32)[nH]1` (relative stereo) [Example 302, Methyl 2-(24(3S,8aS*)-7-(3-chloro-2-fluoro-6-(1H-tetrazol-1-yl)phenyl)-5-oxo-1,2,3,5,8,8a-hexahydroindolizin-3-yl)-1H-imidazol-4-yl)phenylcarbamate]: the results for the negative logarithm of the IC50 (pIC50) in test [1] (setting [3]) and in test [2] were 7.98 and 7.54, respectively.

Turning to `Cn1c(=O)[nH]c2cc(-c3cnc([C@@H]4CC[C@@H]5CC(c6c(-n7cnnn7)ccc(Cl)c6F)=CC(=O)N54)[nH]3)ccc21` (relative stereo) [Example 303, 5-(24(3S,8aR*)-7-(3-Chloro-2-fluoro-6-(1H-tetrazol-1-yl)phenyl)-5-oxo-1,2,3,5,8,8a-hexahydroindolizin-3-yl)-1H-imidazol-5-yl)-1-methyl-1H-benzo[d]imidazol-2(3H)-one], the pIC50 was 9.05 in test [1] (setting [3]) and 8.36 in test [2].

Turning to `Cn1cc(-c2ccccc2NC(=O)C2CC2)nc1[C@@H]1CC[C@H]2CC(c3c(-n4cnnn4)ccc(Cl)c3F)=CC(=O)N21` (relative stereo) [Example 304, N-(2-(2-((3S,8aS*)-7-(3-Chloro-2-fluoro-6-(1H-tetrazol-1-yl)phenyl)-5-oxo-1,2,3,5,8,8a-hexahydroindolizin-3-yl)-1-methyl-1H-imidazol-4-yl)phenyl)cyclopropanecarboxamide], the pIC50 in test [1] (setting [3]) was < 7.00; in test [2] it was 6.49.

As for `CC(C)C(=O)Nc1ccccc1-c1cnc([C@@H]2CC[C@@H]3CC(c4c(-n5cnnn5)ccc(Cl)c4F)=CC(=O)N32)[nH]1` (relative stereo) [Example 305, N-(2-(2-((3S,8aR*)-7-(3-Chloro-2-fluoro-6-(1H-tetrazol-1-yl)phenyl)-5-oxo-1,2,3,5,8,8a-hexahydroindolizin-3-yl)-1H-imidazol-4-yl)phenyl)isobutyramide], the pIC50 was 9.15 in test [1] (setting [3]) and 8.77 in test [2].

Consider `CC(=O)Nc1ccccc1-c1cnc([C@@H]2CC[C@H]3CC(c4c(-n5cnnn5)ccc(Cl)c4F)=CC(=O)N32)[nH]1` (relative stereo) [Example 306, N-(2-(24(3S,8aS*)-7-(3-Chloro-2-fluoro-6-(1H-tetrazol-1-yl)phenyl)-5-oxo-1,2,3,5,8,8a-hexahydroindolizin-3-yl)-1H-imidazol-4-yl)phenyl)acetamide], for which the values for the negative logarithm of the IC50 (pIC50) in test [1] (setting [3]) and in test [2] were 9.30 and 7.93, respectively.

With `Nc1ccccc1-c1cnc([C@@H]2CC[C@H]3CC(c4c(-n5cnnn5)ccc(Cl)c4F)=CC(=O)N32)[nH]1` (relative stereo) [Example 308, (3S,8aS*)-3-(4-(2-Aminophenyl)-1H-imidazol-2-yl)-7-(3-chloro-2-fluoro-6-(1H-tetrazol-1-yl)phenyl)-2,3,8,8a-tetrahydroindolizin-5(1H)-one], the pIC50 in test [1] (setting [3]) is 7.03; in test [2] it was < 7.00.

With `Nc1ccccc1-c1cnc([C@@H]2CC[C@@H]3CC(c4c(-n5cnnn5)ccc(Cl)c4F)=CC(=O)N32)[nH]1` (relative stereo) [Example 310, (3S,8aR*)-3-(4-(2-Aminophenyl)-1H-imidazol-2-yl)-7-(3-chloro-2-fluoro-6-(1H-tetrazol-1-yl)phenyl)-2,3,8,8a-tetrahydroindolizin-5(1H)-one], the pIC50 is 7.47 in test [1] (setting [3]) and < 7.00 in test [2].

With `COC(=O)Nc1ccc(-c2cnc([C@@H]3CC[C@H]4CC(c5c(F)ccc(Cl)c5OC(F)F)=CC(=O)N43)[nH]2)cc1` (relative stereo) [Example 319, Methyl (4-(2-((3S,8aS)-7-(3-Chloro-2-(difluoromethoxy)-6-fluorophenyl)-5-oxo-1,2,3,5,8,8a-hexahydroindolizin-3-yl)-1H-imidazol-5-yl)phenyl)carbamate], in test [1] (μM, kinetic reads), the IC50 was 2.2 µM. The pIC50 in test [2] is 6.34.

As for `COC(=O)Nc1ccc(-c2cnc([C@@H]3CC[C@H]4CC(c5c(OC(F)F)ccc(Cl)c5F)=CC(=O)N43)[nH]2)cc1` (relative stereo) [Example 320, Methyl (4-(2-((3S,8aS)-7-(3-Chloro-6-(difluoromethoxy)-2-fluorophenyl)-5-oxo-1,2,3,5,8,8a-hexahydroindolizin-3-yl)-1H-imidazol-5-yl)phenyl)carbamate], the figures for the pIC50 in test [1] (setting [3]) and in test [2] were 7.63 and 8.42, respectively.

On to `O=C1C=C(c2c(-n3cnnn3)ccc(Cl)c2F)C[C@@H]2CC[C@@H](c3ncc(-c4cc[n+]([O-])cc4)[nH]3)N12` (relative stereo) [Example 321, 4-(2-((3S,8aS)-7-(3-Chloro-2-fluoro-6-(1H-tetrazol-1-yl)phenyl)-5-oxo-1,2,3,5,8,8a-hexahydroindolizin-3-yl)-1H-imidazol-5-yl)pyridine 1-oxide], for which the negative logarithm of the IC50 (pIC50) is 7.10 in test [1] (setting [3]) and 6.47 in test [2].

Consider `COC(=O)Nc1ccc(-c2cnc([C@@H]3CC[C@H]4CC(c5c(-n6cnnn6)ccc(Cl)c5F)=CC(=O)N43)[nH]2)nc1` (relative stereo) [Example 322, Methyl (6-(2-((3S,8aS)-7-(3-Chloro-2-fluoro-6-(1H-tetrazol-1-yl)phenyl)-5-oxo-1,2,3,5,8,8a-hexahydroindolizin-3-yl)-1H-imidazol-5-yl)pyridin-3-yl)carbamate], for which the results for the negative-log IC50 (pIC50) in test [1] (setting [3]) and in test [2] were 9.10 and 7.99, respectively.

`CC1(C)C[C@@H](c2ncc(-c3ccc(N)nc3Cl)[nH]2)N2C(=O)C=C(c3c(-n4cnnn4)ccc(Cl)c3F)C[C@@H]21` (relative stereo) [Example 335, (3S,8aR)-3-(5-(6-Amino-2-chloropyridin-3-yl)-1H-imidazol-2-yl)-7-(3-chloro-2-fluoro-6-(1H-tetrazol-1-yl)phenyl)-1,1-dimethyl-2,3,8,8a-tetrahydroindolizin-5(1H)-one]: the results for the pIC50 in test [1] (setting [3]) and in test [2] were 8.24 and 7.64, respectively.

Consider `CC1(C)C[C@@H](c2ncc(-c3ccc(N)nc3F)[nH]2)N2C(=O)C=C(c3c(-n4cnnn4)ccc(Cl)c3F)C[C@@H]21` (relative stereo) [Example 336, (3S,8aR)-3-(5-(6-Amino-2-fluoropyridin-3-yl)-1H-imidazol-2-yl)-7-(3-chloro-2-fluoro-6-(1H-tetrazol-1-yl)phenyl)-1,1-dimethyl-2,3,8,8a-tetrahydroindolizin-5(1H)-one], for which the values for the negative-log IC50 (pIC50) in test [1] (setting [3]) and in test [2] were 8.03 and 7.32, respectively.

Regarding `CC1(C)C[C@@H](c2ncc(-c3ccc(N)nc3F)[nH]2)N2C(=O)C=C(c3c(-n4cnnn4)ccc(Cl)c3F)C[C@H]21` (relative stereo) [Example 337, (3S,8aS)-3-(5-(6-Amino-2-fluoropyridin-3-yl)-1H-imidazol-2-yl)-7-(3-chloro-2-fluoro-6-(1H-tetrazol-1-yl)phenyl)-1,1-dimethyl-2,3,8,8a-tetrahydroindolizin-5(1H)-one], the pIC50 was 8.82 in test [1] (setting [3]) and 7.90 in test [2].

`CC1(C)C[C@@H](c2ncc(-c3ccc(N)nc3Cl)[nH]2)N2C(=O)C=C(c3c(-n4cnnn4)ccc(Cl)c3F)C[C@H]21` (relative stereo) [Example 338, (3S,8aS)-3-(5-(6-Amino-2-chloropyridin-3-yl)-1H-imidazol-2-yl)-7-(3-chloro-2-fluoro-6-(1H-tetrazol-1-yl)phenyl)-1,1-dimethyl-2,3,8,8a-tetrahydroindolizin-5(1H)-one]: the values for the negative logarithm of the IC50 (pIC50) in test [1] (setting [3]) and in test [2] were 9.00 and 8.08, respectively.
